Experimental data taken from patent US20080311126A1, “Antisense Oligonucleotides Directed to Ribonucleotide Reducatase R2 and Uses Thereof in Combination Therapies for the Treatment of Cancer” (Genesense Technologies, Inc, priority 2004, published 2008).
Oligonucleotides are written 5' to 3', each unit as a sugar letter and its base; * is a phosphorothioate linkage, no mark a phosphodiester; rarer units and linkages stand in square brackets, end groups in braces. Plain capitals give the bases only. d = 2'-deoxy (DNA)

Experiments:
Type in all cases: cell-based, human
Hela S3 cells = test: Relative colony forming efficiency, lipofectin +/- oligonucleotide 4 hours; conditions: Hela S3 cervix carcinoma cells; averages of 2-8 determinations
Outline: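 HeLa S3 cells were exposed to phosphorothioate antisense oligonucleotide (0.2 μM unless stated) with lipofectin for 4 h, then grown 7–10 days in 10% FBS medium. Methylene blue-stained colonies were counted and expressed as percent survival relative to lipofectin-only controls.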

[1] = test system: HepG2 hepatocellular carcinoma; test: Relative colony forming efficiency (Example 17, Table 13); conditions: averages of 2-8 determinations
Outline: (§1)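 Phosphorothioate antisense oligodeoxynucleotides, at 0.2 μM unless otherwise indicated, were applied with 2.5 μg DOTMA/DOPE (Lipofectin) for 4 h. Colonies stained with methylene blue and scored, with viability sometimes checked by trypan blue exclusion. Values given as % inhibition of colony formation relative to lipofectin-only controls.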

[2] = test system: MDA-MB-231 breast cell adenocarcinoma; test: as above; conditions: averages of 2-8 determinations
Outline: as §1

[3] = test system: H596 lung adenosquamous carcinoma cells; test: as above; conditions: averages of 2-8 determinations
Outline: as §1

A549 lung cell carcinoma = test: as above; conditions: averages of 2-8 determinations
Outline: as §1

[4] = test system: PC-3 prostrate cell adenocarcinoma; test: as above; conditions: averages of 2-8 determinations
Outline: as §1

[5] = test system: T-47D breast ductal carcinoma; test: as above; conditions: averages of 2-8 determinations
Outline: as §1

[6] = test system: T24 bladder cell carcinoma; test: as above; conditions: averages of 2-8 determinations
Outline: as §1

[7] = test system: HCT116 colon cell carcinoma; test: as above; conditions: averages of 2-8 determinations
Outline: as §1

[8] = test system: MDA PaCa-2 pancreatic cell carcinoma; test: as above; conditions: MIA PaCa-2 pancreatic cell carcinoma, averages of 2-8 determinations
Outline: as §1

| Sequence | Reduced relative colony forming efficiency, Hela S3 (% inhibition of colony forming ability) (Hela S3 cells) [%] | Reduced relative colony forming efficiency, HepG2 (% inhibition of colony forming ability) [1] [%] | Reduced relative colony forming efficiency, MDA-MB-231 (% inhibition of colony forming ability) [2] [%] | Reduced relative colony forming efficiency, 11596 (% inhibition of colony forming ability) [3] [%] | Reduced relative colony forming efficiency, A549 (% inhibition of colony forming ability) (A549 lung cell carcinoma) [%] | Reduced relative colony forming efficiency, PC-3 (% inhibition of colony forming ability) [4] [%] | Reduced relative colony forming efficiency, T-47D (% inhibition of colony forming ability) [5] [%] | Reduced relative colony forming efficiency, T24 (% inhibition of colony forming ability) [6] [%] | Reduced relative colony forming efficiency, HCT116 (% inhibition of colony forming ability) [7] [%] | Reduced relative colony forming efficiency, MIA PaCa-2 (% inhibition of colony forming ability) [8] [%] | Reduced relative colony forming efficiency, HepG2 (% inhibition of colony forming ability) ([1]; listed as AS-II-75-20 *) [%] | Reduced relative colony forming efficiency, MDA-MB-231 (% inhibition of colony forming ability) ([2]; listed as AS-II-75-20 *) [%] | Reduced relative colony forming efficiency, PC-3 (% inhibition of colony forming ability) ([4]; listed as AS-II-75-20 *) [%] | Reduced relative colony forming efficiency, T24 (% inhibition of colony forming ability) ([6]; listed as AS-II-75-20 *) [%] | Reduced relative colony forming efficiency, MIA PaCa-2 (% inhibition of colony forming ability) ([8]; listed as AS-II-75-20 *) [%] |
| --- | --- | --- | --- | --- | --- | --- | --- | --- | --- | --- | --- | --- | --- | --- | --- |
| AGGACTGGTTGTGAGGTAGC (antisense dA*dG*dG*dA*dC*dT*dG*dG*dT*dT*dG*dT*dG*dA*dG*dG*dT*dA*dG*dC) [AS-II-1499-20] | 87.56 | 77.5 | 41.26 | 78.3 | 87.8 | 77.28 | 96.67 | 82.81 | 83.01 | 81.17 | – | – | – | – | – |
| ATCGCCGCCGTG (antisense dA*dT*dC*dG*dC*dC*dG*dC*dC*dG*dT*dG) [AS-II-1775-12] | 68.61 | 43.97 | 48.6 | 18.6 | 63.55 | 78.17 | – | 85.54 | – | 27.78 | – | – | – | – | – |
| CCCCTTCAGCGGCG (antisense dC*dC*dC*dC*dT*dT*dC*dA*dG*dC*dG*dG*dC*dG) [AS-II-253-14] | 65.18 | 42 | – | 0.81 | 61.62 | 67.26 | 27.09 | 19.41 | 53.28 | – | – | – | – | – | – |
| CGCGCGCTCCCGGCCCTTCC (listed as DNA, chemistry not fully specified) [AS-II-75-20] | 93.01 | 97.89 | 95.14 | – | 60.08 | 83.46 | 32.95 | 95.83 | 44.4 | 52.07 | 35.4 | 49.3 | 68.25 | 73.42 | 97.38 |
| CGCGCTCCCGGCCC (antisense dC*dG*dC*dG*dC*dT*dC*dC*dC*dG*dG*dC*dC*dC) [AS-II-79-14] | 28.64 | 70.81 | 48.6 | – | 79.17 | 85.32 | 70.81 | 38.4 | 45.56 | 38.89 | – | – | – | – | – |
| CGGCGGCGTGTT (antisense dC*dG*dG*dC*dG*dG*dC*dG*dT*dG*dT*dT) [AS-II-288-12] | 57.63 | 65.89 | 52.1 | 12.67 | 70.49 | 74.01 | – | 30.38 | 67.57 | 30.09 | – | – | – | – | – |
